Laboratory results from PubChem BioAssay (NCI).
“And” between values parts separate entries of the source, which are not always exact repeats. Equal entries are not always repeated.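 96-well plates; 48 h exposure; 5 concentrations. Endpoints by linear interpolation between flanking doses. Not reached: highest tested concentration assigned. GI50 = concentration required for 50% inhibition of growth. Definition used: TGI = concentration required for complete inhibition of growth.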

Experiments:
Experiment in all cases: NCI-60 cell line screen, 48 h
786-0 renal = test system: 786-0 renal
A498 renal = test system: A498 renal
A549 NSCLC = test system: A549 NSCLC
HL-60(TB) leukemia = test system: HL-60(TB) leukemia
HOP-92 NSCLC = test system: HOP-92 NSCLC
MOLT-4 leukemia = test system: MOLT-4 leukemia
NCI-H522 lung = test system: NCI-H522 lung
OVCAR-5 ovarian = test system: OVCAR-5 ovarian
OVCAR-8 ovarian = test system: OVCAR-8 ovarian
SW-620 colon = test system: SW-620 colon

SMILES | GI50 (786-0 renal) [µM] | TGI (786-0 renal) | GI50 (A498 renal) [µM] | TGI (A498 renal) | GI50 (A549 NSCLC) [µM] | TGI (A549 NSCLC) | GI50 (HL-60(TB) leukemia) [µM] | TGI (HL-60(TB) leukemia) | GI50 (HOP-92 NSCLC) [µM] | TGI (HOP-92 NSCLC) [µM] | GI50 (MOLT-4 leukemia) [µM] | TGI (MOLT-4 leukemia) | GI50 (NCI-H522 lung) [µM] | TGI (NCI-H522 lung) | GI50 (OVCAR-5 ovarian) [µM] | TGI (OVCAR-5 ovarian) | GI50 (OVCAR-8 ovarian) [µM] | TGI (OVCAR-8 ovarian) | GI50 (SW-620 colon) [µM] | TGI (SW-620 colon)
COc1ccc(C(=NN=C(N)N)c2ccc(OC)cc2)cc1 | 3.29 | 13.1 µM | 2.78 | 13.3 µM | 4.91 | 18.5 µM | 2.53 | 8.48 µM | 1.9 | 7.45 | 3.89 | 16.7 µM | 2.9 | 13.4 µM | 5.1 | 21.6 µM | 5.29 | 21.1 µM | 3.11 | 12.4 µM
OCC[N+]12CCCN1CCC2 | – | > 100 µM | – | > 100 µM | – | > 100 µM | – | > 100 µM | – | > 100 | – | > 100 µM | – | > 100 µM | – | > 100 µM | – | > 100 µM | – | > 100 µM
Cn1cc(C2=C(c3cn(-c4ccccc4)c4ccccc34)C(=O)NC2=O)c2ccccc21 | > 25 | > 25 µM | > 16.2 | > 25 µM | 11.8 | > 25 µM | 8.91 | > 25 µM | > 25 | > 25 | 9.59 | > 25 µM | 6.61 | > 25 µM | > 25 | > 25 µM | 19.5 | > 25 µM | 9.68 | > 25 µM
COc1c(/C=C/C=O)cc2c(c1OC)OCO2 | – | > 100 µM | – | 3.15 µM | – | > 100 µM | – | 53.1 µM | – | > 100 | – | 49.6 µM | – | > 100 µM | – | > 100 µM | – | > 100 µM | – | > 100 µM
N/N=C(\c1nc2ccc([N+](=O)[O-])cc2[nH]c1=O)C(O)c1ccc(Cl)c(Cl)c1 (centres undefined) | – | > 100 µM | – | > 100 µM | – | > 100 µM | – | > 100 µM | – | > 100 | – | > 100 µM | – | > 100 µM | – | > 100 µM | – | > 100 µM | – | > 100 µM
O=C1CC(c2ccccc2)Cc2nc3ccc(Br)cc3cc21 (centres undefined) | 0.667 | > 100 µM | 0.0377 | 0.487 µM | 0.378 | > 100 µM | 0.235 | 0.672 µM | 0.45 | 46.1 | 0.0639 | > 100 µM | 0.204 | 20.3 µM | 0.757 | > 100 µM | 0.4 | > 100 µM | 0.362 | > 100 µM
COc1cc(/C=C2\CCC/C(=C\c3ccc(O)c(OC)c3)C2=O)ccc1O | 1.67 | 4.42 µM and 3.07 µM | 1.81 | 13.5 µM and 5.34 µM | 1.96 | 10.8 µM and 5.04 µM | 0.397 | 10.7 µM and 10.8 µM | – | 30.7 | 2.18 | 25.6 µM and 15.5 µM | 1.12 | 3.23 µM and 2.66 µM | 2.3 | 26.6 µM and 5.67 µM | 2.49 | 3.39 µM and 11.1 µM | 1.84 | 9.59 µM and 3.51 µM
O=c1cnnc(N/N=C/c2ccccc2O)[nH]1 | 5.1 | > 100 µM | 1.81 | 23.3 µM | 1.55 | > 100 µM | 2.91 | 21.8 µM | 4.75 | > 100 | 0.973 | > 100 µM | 1.26 | > 30.5 µM | 1.22 | > 100 µM | 1.81 | > 100 µM | 0.442 | > 100 µM
O=C(C=P(c1ccccc1)(c1ccccc1)c1ccccc1)CCl | 1.61 | 3.56 µM | 1.09 | 2.46 µM | 2.16 | 8.14 µM | 1.31 | 6.12 µM | 0.142 | 0.693 | 1.59 | 6.85 µM | 0.396 | 1.64 µM | 1.46 | 3.73 µM | 0.918 | 3.8 µM | 0.579 | 2.12 µM
O=[N+]([O-])c1ccc(C(Cl)C(Cl)c2ccc(C(Cl)C(Cl)c3ccc([N+](=O)[O-])cc3[N+](=O)[O-])cc2)c([N+](=O)[O-])c1 (centres undefined) | 0.321 | 5.62 µM and 1.09 µM | 1.05 | 11.1 µM and 2.96 µM | 0.362 | 5.04 µM and 4.46 µM | 0.132 | – | – | 3.28 | – | > 62 µM | 0.183 | 2.36 µM and 0.447 µM | – | 4.83 µM | 0.282 | 2.13 µM and 0.918 µM | – | 1.69 µM
COC(=O)[C@]12CC[C@@H](C)[C@H](C)[C@@H]1C1=CC[C@@H]3[C@@]4(C)C[C@@H](OC(=O)/C=C/c5ccccc5)[C@H](O)[C@@](C)(CO)[C@@H]4[C@H](O)C[C@@]3(C)[C@]1(C)CC2 | 1.87 | 3.82 µM | 1.07 | 4.83 µM | 3.11 | 12 µM | 2.63 | 6.51 µM | 2.11 | 6.42 | 2.27 | 7.31 µM | 1.53 | 3.36 µM | 2.17 | 6 µM | 3.2 | 11.5 µM | 1.93 | 4.2 µM
CCC1C(C(=O)Nc2ccccc2C)=C(C)NC(C)=C1c1ccccc1C (centres undefined) | – | > 100 µM | – | > 100 µM | – | > 100 µM | – | 31.5 µM | – | > 100 | – | > 100 µM | – | > 100 µM | – | > 100 µM | – | > 100 µM | – | > 59.9 µM
Cc1ccc(NC(=O)CC/C(CC(=O)C(C)(C)C)=N\NC(=O)C[n+]2ccccc2)cc1C | – | > 100 µM | – | > 100 µM | – | > 100 µM | – | > 100 µM | – | > 100 | – | > 100 µM | – | > 100 µM | – | > 100 µM | – | > 100 µM | – | > 100 µM
